Source: ChEMBL document CHEMBL1122859, “Novel vasopressin analogues that help define a minimum effective antagonist pharmacophore” (J Med Chem, 1985)
Numbered stars: 1 amine (or outer) side, 2 acyl side, 3 side chain; on linkers, the order of the positions; unused ones are H or OH. Bridge positions count the residues as written; N and C are the ends. Square brackets hold non-standard residues; d marks the D form. Peptide text beside a SMILES is read from it. * marks the point of attachment. X1 = O=C(CC1(S[*:2])CCCCC1)[*:1]; NH(CH2)5NH2 = NCCCCCN*

How the values were obtained:
Vasopressin V2 receptor [1] = target: T1, Vasopressin V2 receptor (Sus scrofa, UniProt P32307); test: Tested for inhibition of vasopressin-stimulated adenylate cyclase of medullary membranes of pig kidney.
T1 sequence (P32307 whole entry): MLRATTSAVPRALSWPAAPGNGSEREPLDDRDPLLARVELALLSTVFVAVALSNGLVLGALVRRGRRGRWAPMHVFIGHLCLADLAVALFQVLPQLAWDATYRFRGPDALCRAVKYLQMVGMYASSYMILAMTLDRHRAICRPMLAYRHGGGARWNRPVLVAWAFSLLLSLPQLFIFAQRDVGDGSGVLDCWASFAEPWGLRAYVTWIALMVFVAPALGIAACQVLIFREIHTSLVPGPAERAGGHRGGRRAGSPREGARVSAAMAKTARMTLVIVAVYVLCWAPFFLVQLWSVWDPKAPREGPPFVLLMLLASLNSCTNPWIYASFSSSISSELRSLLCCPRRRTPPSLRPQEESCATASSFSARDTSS

Vasopressin V2 receptor [2] = target: T1, Vasopressin V2 receptor; test: Tested for inhibition of [3H]LVP binding to vasopressin receptor in medullary membranes of pig kidney.; format: cell membranes
Rattus norvegicus = test: Dose required to lower urine osmolality to 300 mOsm/kg in rat.; format: functional

Ki (Vasopressin V2 receptor [1]) [nM]	Ki (Vasopressin V2 receptor [2]) [nM]	SMILES	ED300 (Rattus norvegicus) [mg/kg]
9.4	37	CCOc1ccc(C[C@H]2NC(=O)CC3(CCCCC3)SSC[C@@H](C(=O)N3CCC[C@H]3C(=O)N[C@@H](CCCCN)C(N)=O)NC(=O)[C@H](CC(N)=O)NC(=O)[C@H](C(C)C)NC(=O)[C@H](Cc3ccccc3)NC2=O)cc1 [listing 1 of 2 here]	
		CCOc1ccc(C[C@H]2NC(=O)CC3(CCCCC3)SSC[C@@H](C(=O)N3CCC[C@H]3C(=O)N[C@@H](CCCCN)C(N)=O)NC(=O)[C@H](CC(N)=O)NC(=O)[C@H](C(C)C)NC(=O)[C@H](Cc3ccccc3)NC2=O)cc1 [listing 2 of 2 here]	0.022
6.8	19	CCOc1ccc(C[C@H]2NC(=O)CC3(CCCCC3)SSC[C@@H](C(=O)NCCCCCN)NC(=O)[C@H](CC(N)=O)NC(=O)[C@H](C(C)C)NC(=O)[C@H](Cc3ccccc3)NC2=O)cc1 [listing 1 of 2 here]	
		CCOc1ccc(C[C@H]2NC(=O)CC3(CCCCC3)SSC[C@@H](C(=O)NCCCCCN)NC(=O)[C@H](CC(N)=O)NC(=O)[C@H](C(C)C)NC(=O)[C@H](Cc3ccccc3)NC2=O)cc1 [listing 2 of 2 here]	0.094
5.8	26	CCOc1ccc(C[C@H]2NC(=O)CC3(CCCCC3)SSC[C@@H](C(=O)N[C@@H](CCCCN)C(N)=O)NC(=O)[C@H](CC(N)=O)NC(=O)[C@H](C(C)C)NC(=O)[C@H](Cc3ccccc3)NC2=O)cc1 [listing 1 of 2 here]	
		CCOc1ccc(C[C@H]2NC(=O)CC3(CCCCC3)SSC[C@@H](C(=O)N[C@@H](CCCCN)C(N)=O)NC(=O)[C@H](CC(N)=O)NC(=O)[C@H](C(C)C)NC(=O)[C@H](Cc3ccccc3)NC2=O)cc1 [listing 2 of 2 here]	0.059
7.2	30	CCOc1ccc(C[C@H]2NC(=O)CC3(CCCCC3)SSC[C@@H](C(=O)N3CCC[C@H]3C(=O)NCCCCCN)NC(=O)[C@H](CC(N)=O)NC(=O)[C@H](C(C)C)NC(=O)[C@H](Cc3ccccc3)NC2=O)cc1 ([dY](Et)FVNCP-{NH(CH2)5NH2}; linker N-5 via X1) [listing 1 of 2 here]	
		CCOc1ccc(C[C@H]2NC(=O)CC3(CCCCC3)SSC[C@@H](C(=O)N3CCC[C@H]3C(=O)NCCCCCN)NC(=O)[C@H](CC(N)=O)NC(=O)[C@H](C(C)C)NC(=O)[C@H](Cc3ccccc3)NC2=O)cc1 ([dY](Et)FVNCP-{NH(CH2)5NH2}; linker N-5 via X1) [listing 2 of 2 here]	0.027
		CCOc1ccc(C[C@H]2NC(=O)CC3(CCCCC3)SSC[C@@H](C(=O)N3CCC[C@H]3C(=O)N[C@@H](CCCNC(=N)N)C(N)=O)NC(=O)[C@H](CC(N)=O)NC(=O)[C@H](C(C)C)NC(=O)[C@H](Cc3ccccc3)NC2=O)cc1 ([dY](Et)FVNCPR-NH2; linker N-5 via X1)	0.0092
		CCOc1ccc(C[C@H]2NC(=O)CC3(CCCCC3)SSC[C@@H](C(=O)N3CCC[C@H]3C(=O)N[C@@H](CCCN=C(N)N)C(=O)NCC(N)=O)NC(=O)[C@H](CC(N)=O)NC(=O)[C@H](C(C)C)NC(=O)[C@H](Cc3ccccc3)NC2=O)cc1 ([dY](Et)FVNCPRG-NH2; linker N-5 via X1)	0.0112
